Test results: US20100113513A1, “QUINOLINE DERIVATIVES AS FUNGICIDES” (SYNGENTA CROP PROTECTION, INC., priority 2007, published 2010)

test system: Erysiphe graminis f.sp. tritici; test: Erysiphe graminis f.sp. tritici (wheat powdery mildew) wheat leaf segment test, preventive; assay type: in vivo; settings: Blumeria graminis, foliar, 96 h, wheat leaf segments, assessed four days after inoculation, read-out: control of fungal infection, Erysiphe graminis f.sp. tritici

Compound	pest or weed control at 200 ppm [%]
COCC(C)(C)NC(=O)C(OC)Oc1ccc2ncc(Br)cc2c1 (stereo not drawn) [47 (155), 2-(3-Bromo-quinolin-6-yloxy)-2-methoxy-N-(2-methoxy-1,1-dimethyl-ethyl)-acetamide]	≥ 60
COC(Oc1cc(Br)c2ncc(Br)cc2c1)C(=O)NC(C)(C)C (stereo not drawn) [12 (99), N-tert-Butyl-2-(3,8-dibromo-quinolin-6-yloxy)-2-methoxy-acetamide]	≥ 60
CCOC(Oc1ccc2ncc(Br)cc2c1)C(=O)NC(C)(C)COC (stereo not drawn) [47 (156), 2-(3-Bromo-quinolin-6-yloxy)-2-ethoxy-N-(2-methoxy-1,1-dimethyl-ethyl)-acetamide]	≥ 60
COCC(C)(C#N)NC(=O)C(OC)Oc1ccc2ncc(Br)cc2c1 (stereo not drawn) [52 (155), 2-(3-Bromo-quinolin-6-yloxy)-N-(1-cyano-2-methoxy-1-methyl-ethyl)-2-methoxy-acetamide]	≥ 60
CCC(Oc1ccc2ncc(Br)cc2c1)C(=O)NC(C)(C#N)COC (stereo not drawn) [52 (154), 2-(3-Bromo-quinolin-6-yloxy)-N-(1-cyano-2-methoxy-1-methyl-ethyl)-butyramide]	≥ 60
CCC(Oc1cc(C)c2ncc(Br)cc2c1)C(=O)NC(C)(C)COC (stereo not drawn) [47 (90), 2-(3-Bromo-8-methyl-quinolin-6-yloxy)-N-(2-methoxy-1,1-dimethyl-ethyl)-butyramide]	≥ 60
CCOC(Oc1ccc2ncc(Br)cc2c1)C(=O)NC(C)(C)C (stereo not drawn) [12 (156), 2-(3-Bromo-quinolin-6-yloxy)-N-tert-butyl-2-ethoxy-acetamide]	≥ 60
CCC(Oc1ccc2ncc(Br)cc2c1)C(=O)NC(C)(C)C (stereo not drawn) [12 (154), 2-(3-bromo-quinolin-6-yloxy)-N-tert-butyl-butyramide]	≥ 60
COC(Oc1ccc2ncc(Br)cc2c1)C(=O)NC(C)(C)C (stereo not drawn) [12 (155), 2-(3-bromo-quinolin-6-yloxy)-N-tert-butyl-2-methoxy-acetamide]	≥ 60
